pIC50: −log10 of the molar value.
How the values were obtained:
OCI-AML2 cells = assay: Viability measurements, OCI-AML2 cells; assay type: cell-based
Description: (§1) Cells were seeded in a transparent-bottom, black 96-well plate, at 15,000 cells per well in sixfold replications. in 90 µl of medium and left to adhere for at least 4 h. The cells were then treated with the respective compound by adding 10 µl of medium–-compound mixture for a final volume of 100 µl in each well. Cell-Titer blue reagent was used to measure viability according to the manufacturer’s instructions. Plate reader measurements were performed on a Tecan Spark Control 10 M fluorescence system.

HEK 293 cells = assay: Viability measurements, HEK 293 cells; assay type: cell-based; details: HEK 293, 72 h
Description: as §1

Mino cells = assay: Viability measurements, Mino cells; assay type: cell-based; details: Mino, 72 h
Description: as §1

[1] = test system: RAS GTPase-activating protein-binding protein 1; assay: Colocalization with RAS GTPase-activating protein-binding protein 1 (stress granules); assay type: cell-based
U2OS cells = assay: Viability measurements, U2OS cells; assay type: cell-based
Description: as §1

Keap1 = Keap1 (Homo sapiens, UniProt Q14145); assay: Immunostaining of endogenous Keap1 puncta in U2OS cells; assay type: cell-based; parameters: We visualized the subcellular localization of endogenous Keap1 following PINCH treatment by immunofluorescence in U2OS cells; endogenous in cells; host or cells: U2OS (ATCC HTB-96); details: 250 nM
Chain of Keap1 (Q14145 whole entry): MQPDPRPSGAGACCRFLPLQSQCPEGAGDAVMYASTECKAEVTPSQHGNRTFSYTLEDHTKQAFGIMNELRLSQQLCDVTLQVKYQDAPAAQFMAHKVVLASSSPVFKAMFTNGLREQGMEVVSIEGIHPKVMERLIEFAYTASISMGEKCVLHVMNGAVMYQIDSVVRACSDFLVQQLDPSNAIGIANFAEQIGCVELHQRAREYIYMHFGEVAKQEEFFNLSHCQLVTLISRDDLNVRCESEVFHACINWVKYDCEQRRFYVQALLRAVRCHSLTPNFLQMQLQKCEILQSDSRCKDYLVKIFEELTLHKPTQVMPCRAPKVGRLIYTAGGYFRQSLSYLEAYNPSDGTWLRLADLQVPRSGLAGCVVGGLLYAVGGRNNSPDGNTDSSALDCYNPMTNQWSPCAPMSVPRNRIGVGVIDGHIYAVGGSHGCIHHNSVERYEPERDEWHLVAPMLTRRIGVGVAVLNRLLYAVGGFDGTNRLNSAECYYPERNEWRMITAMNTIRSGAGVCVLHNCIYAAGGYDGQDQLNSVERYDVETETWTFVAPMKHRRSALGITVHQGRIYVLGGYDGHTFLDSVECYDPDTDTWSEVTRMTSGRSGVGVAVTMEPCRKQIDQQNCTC
Description: The cells were then blocked with 5% BSA for 60 min at room temperature. Cells were stained with primary antibody, at a concentration of 1:100, for 3 h at room temperature and were then subjected to a secondary antibody conjugated to Alexa Fluor, at a concentration of 1:100–500, for 1 h at room temperature. Lastly, cells were also stained with DAPI for 10 min at room temperature.
Imaging of the cells was performed using a Dragonfly spinning disk confocal system (Andor Technology) connected to an inverted Leica Dmi8 microscope (Leica Microsystems). The signals were detected using a scientific complementary metal–oxide–semiconductor Zyla (Andor) 2,048 × 2,048 camera and the bit depth was 16. At the specified intervals, Z stacks (0.17 µm) of selected cells were acquired with an HC PL APO ×63/1.3 GLYC CORR CS2 objective (506353, Leica Microsystems).
Automatic aggregate segmentation was conducted using the surface module with manual threshold fixed for all images of the same experiment (default 2-pixel smoothing, background subtraction with 0.9-μm largest sphere, morphological split with 0.5-μm seed point diameter). […]
Spots were considered colocalized if their centers were up to 1 μm apart. We manually segmented each cell in 3D using the Surface module and quantified the number percentage and the total puncta volume percentage of colocalized spots for each cell.

recombinant Keap1 BTB [2] = biological target: T1, recombinant Keap1 BTB (Homo sapiens, UniProt Q14145, S172A); assay: DLS of recombinant Keap1 BTB domain; assay type: biochemical; details: 50 μM Keap1 BTB, 50 μM compound, room temperature, over time
T1 construct: The Keap1 BTB domain (48–180) encoding the single substitution S172A was cloned into pET28-bdSumo vector; His–bdSumo (N, cleaved yes); made in house; host or cells: E. coli BL21(DE3)
T1 sequence (Q14145 48-180 S172A): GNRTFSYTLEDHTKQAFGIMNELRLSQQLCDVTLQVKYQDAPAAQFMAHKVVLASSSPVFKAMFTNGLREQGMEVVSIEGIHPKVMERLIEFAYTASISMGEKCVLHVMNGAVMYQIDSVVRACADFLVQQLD
Description: (§2) DLS samples were prepared in the respective protein’s elution buffer, to which 0.01% Tween was added, along with the compound from a DMSO stock to obtain a final DMSO concentration of 2%. Samples were prepared at room temperature and measured at a constant temperature of 25 °C. All samples were passed through 0.1-μm filters and then placed in a clear-bottom black 384-well plate. DLS data were recorded using a DynaproPlate Reader III (Wyatt Technology). Data were processed with the supplied DYNAMICS software.

recombinant Keap1 BTB [3] = assay: DLS of recombinant Keap1 BTB domain; assay type: biochemical; details: 50 µM protein, 50 µM compound
Description: as §2

NQO1 expression = assay: qPCR for NQO1 expression in OCI-AML2 cells after washout; assay type: cell-based; details: OCI-AML2, 250 nM 20 h, from 48 h after treatment
Description: Cells were treated with either DMSO or compound at 250 nM, followed by washing out the treated medium after 20 h and reseeding in fresh medium. Cells were then collected at several time points post washout. Total RNA was extracted using RNeasy mini kit (Qiagen, 74104). […] PCR amplification was carried out in Step-One Plus thermocycler (Applied Biosystems). Relative quantification was performed using standard curves. GAPDH was used for normalization.

Nrf2 = assay: WB of Nrf2; assay type: cell-based; details: U2OS cells, 20 h compound treatment

CC1(C)CCC2(C(=O)NCCOCCOCCNC(=O)C34CCC(C)(C)CC3C3C(=O)C=C5C6(C)C=C(C#N)C(=O)C(C)(C)C6CCC5(C)C3(C)CC4)CCC3(C)C(C(=O)C=C4C5(C)C=C(C#N)C(=O)C(C)(C)C5CCC43C)C2C1 (stereo not drawn) [EL133]
pIC50 (OCI-AML2 cells; Homo sapiens, OCI-AML2, 72 h): 6.58 | difference in viability IC50 over BDX (OCI-AML2 cells; OCI-AML2): fourfold | additional viability loss compared with BDX (HEK 293 cells): no additional viability loss | additional viability loss compared with BDX (Mino cells): no additional viability loss | formation of stress granules [1]: does not induce the formation of its characteristic stress granules | difference in viability IC50 over BDX (U2OS cells): threefold | pIC50 (U2OS cells; Homo sapiens, 72 h): 6.60 | Keap1 puncta (immunofluorescence) (Keap1): bright punctate structures | formation of large species (DLS) (recombinant Keap1 BTB [2]): large molecular species forming | formation of large species with WT versus C151S Keap1 BTB (DLS) (recombinant Keap1 BTB [3]): able to form large species in solution with the wild-type (WT) protein but not with the mutant | duration of NQO1 upregulation after washout (NQO1 expression): remained higher | Nrf2 levels (WB) (Nrf2): Nrf2 upregulation

Source: paper PMC13503280, “A pharmacological modality to sequester homomeric proteins” (Nature Chemical Biology, 2026)
